Laboratory results from patent US7728158B2, “PPAR activity regulators” (Ajinomoto Co., Inc., priority 2006, dated 2010).

What was measured:
[1] = target: T1, PPAR-γ (Homo sapiens, UniProt P37231); test: PPAR-γ reporter assay (GAL4 luciferase, CV-1 cells); format: cell-based; details: induction ratio of luciferase activity at 25 μM, activity without tested compound = 1, hGR-GAL4-hPPAR-γ
T1 construct: expressed in transfected cells; host or cells: CV-1 (African green monkey kidney)
T1 sequence (P37231 204-505): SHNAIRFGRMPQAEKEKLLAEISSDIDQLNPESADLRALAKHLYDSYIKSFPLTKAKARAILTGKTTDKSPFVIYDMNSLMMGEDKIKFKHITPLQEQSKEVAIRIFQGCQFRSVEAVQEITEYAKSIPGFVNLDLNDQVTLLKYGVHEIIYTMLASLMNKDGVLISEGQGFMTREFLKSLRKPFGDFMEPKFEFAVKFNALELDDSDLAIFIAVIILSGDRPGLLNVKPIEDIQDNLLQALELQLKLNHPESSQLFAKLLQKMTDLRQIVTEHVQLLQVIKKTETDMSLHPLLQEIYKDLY
Description: The reporter assay of PPAR-γ was conducted by using the following plasmids in accordance with the known report (Steven A. Kliwer et al., The Journal of Biological Chemistry Vol. 270, No. 22: 12953-12956, 1995).
As luciferase expressing plasmid, used was the plasmid which introduces the sequence wherein 5 yeast GAL4 binding sequences, UAS, are tandemly connected to the upstream of the thymidine kinase promoter of pTAL-Luc (#6252-1, produced by Clontech) (UAS×5-TK-Luc) (1).
(§1) As PPAR-γ receptor expressing plasmid, used was the plasmid which introduces the N-terminal domain of human GR (1-76aa), the yeast GAL4 DNA binding domain (1-147aa) and PPAR-γ2 ligand binding domain (204-505aa) to NotI site and SalI site of pExchange-1 core vector (#211176, produced by Stratagene) (hGR-GAL4-hPPAR-γ) (2). The plasmid mixed solution used in the reporter assay of PPAR-γ contains above (1), (2) and plasmid pcDNA3.1(−) as a carrier in the weight ratio of 4:1:3.
(§2) CV-1 cells were seeded on the 384-well white plate (781080, produced by Greiner) to become 1.5×10^4 cells/30 μL per one well. Then, gene transfer was conducted in accordance with the manual by using OPTI-MEM I (11058-021, produced by GIBCO), FuGENE6 (1-815-075, produced by Roche) and the above PPAR-γ plasmid mixed solution. The incubation was conducted in a carbon-dioxide incubator at 37° C. for 6 to 8 hours. Then, a diluted tested compound was added thereto and incubated in a carbon-dioxide incubator at 37° C. for 16 to 18 hours. Britelite (6016979, produced by PerkinElmer) was further added thereto and stirred, and the luciferase activity was measured with EnVision (produced by PerkinElmer).
(§3) Specifying the luciferase activity without addition of a tested compound as 1, the induction ratio of the luciferase activity by each tested compound was calculated.

[2] = target: T2, PPAR-α (Homo sapiens, UniProt Q07869); test: PPAR-α reporter assay (GAL4 luciferase, CV-1 cells); format: cell-based; details: induction ratio of luciferase activity at 50 μM, activity without tested compound = 1, hGR-GAL4-hPPAR-α
T2 construct: expressed in transfected cells; host or cells: CV-1 (African green monkey kidney)
T2 sequence (Q07869 167-468): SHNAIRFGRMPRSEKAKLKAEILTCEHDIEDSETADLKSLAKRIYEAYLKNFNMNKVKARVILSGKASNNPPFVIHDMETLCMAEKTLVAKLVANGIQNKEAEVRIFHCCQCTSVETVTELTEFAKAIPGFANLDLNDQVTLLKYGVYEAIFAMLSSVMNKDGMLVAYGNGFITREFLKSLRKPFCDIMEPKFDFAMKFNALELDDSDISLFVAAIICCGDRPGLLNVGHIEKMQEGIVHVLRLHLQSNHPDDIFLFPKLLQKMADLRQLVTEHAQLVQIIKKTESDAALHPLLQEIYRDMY
Description: The reporter assay of PPAR (peroxisome proliferator-activated receptor)-α was conducted by using the following plasmids in accordance with the known report (Steven A. Kliwer et al., The Journal of Biological Chemistry Vol. 270, No. 22: 12953-12956, 1995).
As luciferase expressing plasmid, used was the plasmid which introduces the sequence wherein 5 yeast GAL4 binding sequences, UAS (upstream activating sequence), are tandemly connected to the upstream of the thymidine kinase promoter of pTAL-Luc (#6252-1, produced by Clontech) (UAS×5-TK-Luc) (1).
as §1, with “PPAR-α” for “PPAR-γ”, “PPAR-α” for “PPAR-γ2”, “(167-468aa)” for “(204-505aa)”, “(hGR-GAL4-hPPAR-α)” for “(hGR-GAL4-hPPAR-γ)”
The medium having the following composition was used for seeding cell line CV-1 used in the reporter assay, derived from the kidney of an African green monkey, on the plate; and for diluting the tested compounds. Used was Dulbecco modified Eagle medium (D2902 without phenol red, produced by SIGMA) to which 3.7 g/L of NaHCO3, 3.5 g/L of D-glucose and 10% v/v fetal bovine serum were added.
as §2, with “PPAR-α” for “PPAR-γ”
as §3

PPAR-γ induction ratio [1]	PPAR-α induction ratio [2]	SMILES
4.4	1.2	CCCCCCCCCCCCCCCCCCCCCC(=O)N[C@H](C(=O)O)C(C)C [Example 31]
3.2	2.8	CCCCCCCCCCCC(=O)NC(Cc1ccccc1C)C(=O)O (racemic) [Example 38]
13.7	15.0	CCCCCCCCCCCCCCCCCC(=O)N[C@H](C(=O)O)C(C)C [Example 30]
30.2	81.0	CCCCCCCCCCCC(=O)N[C@H](C(=O)O)C(C)(C)C [Example 33]
2.2	3.0	CCCCCCCCCCCC(=O)N[C@@H](Cc1csc2ccccc12)C(=O)O [Example 43]
2.7	2.3	CCCCCCCCCCCC(=O)NC(C(=O)O)C(C(F)(F)F)C(F)(F)F (racemic) [Example 34]
19.5	24.5	CCCCCCCCCCCC(=O)N[C@@H](Cc1ccc(OC)cc1)C(=O)O [Example 37]
6.6	14.4	CCCCCCCCCCCC(=O)N[C@@H](Cc1ccc(Cl)cc1)C(=O)O [Example 42]
6.7	6.2	CCCCCCCCCCCC(=O)NC1(C(=O)O)CCCCCC1 [Example 44]
1.5	2.0	CCCCCCCCCCCC(=O)N[C@H](C(=O)O)C(c1ccccc1)c1ccccc1 [Example 40]
8.7	12.5	CCCCCCCCCCCC(=O)N[C@H](C(=O)O)c1ccccc1 [Example 36]
21.1	54.7	CCCCCCCCCCCC(=O)N[C@H](C(=O)O)[C@H](C)CC [Example 35]
15.2	31.5	CCCCCCCCCC(=O)N[C@H](C(=O)O)C(C)(C)C [Example 32]
11.2	2.3	CCCCCCCCCCCC(=O)N[C@H](C(=O)O)C1CCCCC1 [Example 39]
12.3	1.6	CCCCCCCCCCCCCCCCCC(=O)N[C@@H](CC(C)C)C(=O)O [Example 29]
5.1	7.3	CCCCCCCCCCCC(=O)NC(C)(Cc1ccccc1)C(=O)O (racemic) [Example 41]

The remaining lines, values behind:

SMILES	PPAR-γ induction ratio [1]	PPAR-α induction ratio [2]
C=CCCCCCCCCC(=O)N[C@@H](Cc1ccccc1)C(=O)O [Example 8]	4.4	1.3
CCCCCCCC(=O)N[C@H](C(=O)O)C(C)C [Example 1]	11.9	1.5
CCCCCCCCCCCC(=O)NC(C)C(=O)O (racemic) [Example 13]	15.4	25.0
CCCCCCCCCCCC(=O)N[C@H](C(=O)O)C(C)C [Example 20, N-lauroyl-L-valine]	19.1	52.0
CCCCCCCCCCC(=O)N[C@@H](CC(C)C)C(=O)O [Example 11]	11.6	3.0
CCCCCCCCCC(=O)N[C@H](C(=O)O)[C@@H](C)CC [Example 5]	15.9	3.5
CCCCCCCCCC(=O)N[C@@H](CC(C)C)C(=O)O [Example 6]	9.5	1.3
CCCCCCCCCCCCCC(=O)N[C@@H](CC(C)C)C(=O)O [Example 26]	21.0	33.0
CCCCCCCCCCCCCC(=O)N[C@H](C(=O)O)[C@@H](C)CC [Example 25]	27.4	50.0
C=CCCCCCCCCC(=O)N[C@@H](CC(C)C)C(=O)O [Example 7]	11.5	2.7
CCCCCCCCCCCC(=O)NC(C)(CC)C(=O)O (racemic) [Example 16]	18.5	23.0
CCCCCCCCCCCC(=O)N[C@H](C(=O)NC1CCCCC1)C(C)C (racemic) [Example 23, N-lauroyl-L-valine cyclohexylamide]	21.3	63.0
C=CCCCCCCCCC(=O)N[C@H](C(=O)O)C(C)C [Example 10]	15.3	23.0
CCCCCCCCC(=O)N[C@H](C(=O)O)C(C)C [Example 4]	12.9	3.1
CCCCCCCCCCCC(=O)N[C@@H](CCSC)C(=O)O [Example 19]	20.9	24.0
CCCCCCCCCCCC(=O)NC(C(N)=O)C(C)C (racemic) [Example 21]	19.2	45.0
CCCCCCCCCCC(=O)N[C@@H](Cc1ccccc1)C(=O)O [Example 12]	4.2	1.4
CCCCCCCCCCCC(=O)N[C@H](C(=O)O)[C@@H](C)CC [Example 14]	20.5	51.0
CCCCCCCCCCCCCCCC(=O)N[C@@H](CC(C)C)C(=O)O [Example 27]	11.7	2.5
CCCCCCCCC(=O)N[C@H](C(=O)O)[C@@H](C)CC [Example 2]	12.5	2.1
CCCCCCCCCCCC(=O)N(CC)[C@H](C(=O)O)C(C)C [Example 24]	16.4	46.0
CCCCCCCCCCCCCCCC(=O)N[C@H](C(=O)O)C(C)C [Example 28]	17.1	29.0
CCCCCCCCC(=O)N[C@@H](CC(C)C)C(=O)O [Example 3]	6.1	0.9
CCCCCCCCCC(=O)N[C@H](C(=O)O)C(C)C [Example 9]	25.4	19.0
CCCCCCCCCCCC(=O)N[C@@H](CC(C)C)C(=O)O [Example 15]	9.7	11.0
